Measurements published in US6020328A, “20-keto-11β-arylsteroids and their derivatives having agonist or antagonist hormonal properties” (Research Triangle Institute, priority 1998, dated 2000).

Tests used:
rabbits = experiment: McGinty test (agonist, test compound alone); type: in vivo, rabbit
Procedure: Progestational activity and antiprogestational activity were determined in rabbits by means of the McGinty test (test compound alone, procedure of McGinty et al., Endocrinology, 24:829-832 (1939)) or anti-McGinty test (test compound plus progesterone, procedure of Tamara et al., Jpn. J. Fertil. Steril. 24:48-81 (1979)). Results were scored according to McPhail (McPhail, J. Physiol., 83:146 (1934)).

Human T-47D breast cells [1] = experiment: T-47D cell proliferation, agonist format; type: cell-based; conditions: T47D, 0.01 to 10 nM, maximum at any dose, read-out: Cell Proliferation Agonist maximum % Stim.
Procedure: (§1) Human T-47D breast cells grown in nutrient media were incubated with the standard progestin R5020 alone or with R5020 plus test compound and then assessed by standard procedures for proliferation using incorporation of [^3 H]-thymidine as the measurement. […] The maximum % inhibition (a measure of the efficacy of the compounds) is also given. In the agonist format of this assay the compounds were tested at concentrations ranging from 0.01 to 10 nM and the maximum % stimulation at any dose is listed in Table 2. […] However, the presence of a very polar hydroxyl group in the 17α-position greatly diminishes antiprogestational activity and this holds even when the OH is separated from the 17-carbon atom by a methylene group.

Human T-47D breast cells [2] = experiment: T-47D cell proliferation, antagonist format (inhibition of 0.15 nM R5020-mediated proliferation); type: cell-based; conditions: T47D; for EC50: inhibition of 0.15 nM R5020-mediated proliferation, N.D. not detected; for Emax: maximum % inhibition, 0.15 nM R5020, read-out: Cell Proliferation Antagonist maximum % Inhib.
Procedure: as §1

progestin receptor (hPR) = experiment: progestin receptor binding; conditions: cytosol from human T-47D breast cells; [3H]-R5020; read-out: Receptor Binding Affinity hPR IC50
Excerpt: However, the receptors were of human origin and a different radioligand was used. Thus, for progestin receptor binding the receptor was obtained in cytosol from human T-47D breast cells and [^3 H]-R5020 was used as the radioligand. Data are expressed as IC50 values, i.e., the concentration of compound that inhibits the radioligand binding by 50%.

Question: Which results are given for CCC(=O)O[C@]1(C(C)=O)CC[C@H]2[C@@H]3CCC4=CC(=O)CCC4=C3[C@@H](c3ccc4c(ccn4C)c3)C[C@@]21C [11β-(1-Methylindol-5-yl)-17α-propionyloxy-19-norpregna-4,9-diene-3,20-dione]?
Answer: McPhail Index, McGinty Assay (Agonist) (rabbits; dose 0.3 micrograms): 0 +/- 0; McPhail Index, McGinty Assay (Agonist) (rabbits; dose 3 micrograms): 0 +/- 0; McPhail Index, McGinty Assay (Agonist) (rabbits; dose 30 micrograms): 0 +/- 0; Emax (Human T-47D breast cells [1]): 7%; EC50 (Human T-47D breast cells [2]): 2.4 nM; Emax (Human T-47D breast cells [2]): 107%; IC50 (progestin receptor (hPR)): 2.3 nM

Question: What does the source list for CCC(=O)O[C@]1(C(C)=O)CC[C@H]2[C@@H]3CCC4=CC(=O)CCC4=C3[C@@H](c3ccc(N4CCCCC4)cc3)C[C@@]21C [11β-(4-(N-piperidino)phenyl)-17α-propionyloxy-19-norpregna-4,9-diene-3,20-dione]?
Answer: McPhail Index, McGinty Assay (Agonist) (rabbits; dose 0.3 micrograms): 0 +/- 0; McPhail Index, McGinty Assay (Agonist) (rabbits; dose 3 micrograms): 0 +/- 0; McPhail Index, McGinty Assay (Agonist) (rabbits; dose 30 micrograms): 0 +/- 0; Emax (Human T-47D breast cells [1]): -16%; EC50 (Human T-47D breast cells [2]): 1 nM; Emax (Human T-47D breast cells [2]): 111%; IC50 (progestin receptor (hPR)): 2 nM

Question: For CC(=O)O[C@]1(C(C)=O)CC[C@H]2[C@@H]3CCC4=CC(=O)CCC4=C3[C@@H](c3ccc4c(c3)CCN4C)C[C@@]21C [17α-Acetoxy-11β-(1-methyl-2,3-dihydroindol-5-yl)-19-norpregna-4,9-diene-3,20-dione], which “McPhail Index, McGinty Assay (Agonist)” value (rabbits; dose 0.3 micrograms) is on record?
Answer: The value was 0.6 +/- 0.1.

Question: And the “McPhail Index, McGinty Assay (Agonist)” value (rabbits; dose 3 micrograms)?
Answer: Its value is 0.2 +/- 0.1.

Question: What about the “McPhail Index, McGinty Assay (Agonist)” value (rabbits; dose 30 micrograms) of the same compound?
Answer: Its value is 0.2 +/- 0.1.

Question: What about the Emax (Human T-47D breast cells [1]) of the same compound?
Answer: Its Emax is 6%.

Question: What about the EC50 (Human T-47D breast cells [2]) of the same compound?
Answer: Its EC50 is 1.5 nM.

Question: And the Emax (Human T-47D breast cells [2])?
Answer: The Emax was 103%.

Question: What about the IC50 (progestin receptor (hPR)) of the same compound?
Answer: The IC50 was 2 nM.

Question: Which “McPhail Index, McGinty Assay (Agonist)” value (rabbits; dose 0.3 micrograms) does the source give for CC(=O)O[C@]1(C(C)=O)CC[C@H]2[C@@H]3CCC4=CC(=O)CCC4=C3[C@@H](c3ccc(N(C)C)nc3)C[C@@]21C [17α-Acetoxy-11β-[2-(N,N-dimethylamino)pyrid-5-yl]-19-norpregna-4,9-diene-3,20-dione] here?
Answer: Its value is 0 +/- 0.

Question: And the “McPhail Index, McGinty Assay (Agonist)” value (rabbits; dose 3 micrograms)?
Answer: The value was 0 +/- 0.

Question: What about the “McPhail Index, McGinty Assay (Agonist)” value (rabbits; dose 30 micrograms) of the same compound?
Answer: Its value is 0 +/- 0.

Question: What about the Emax (Human T-47D breast cells [1]) of the same compound?
Answer: Its Emax is 5%.

Question: What about the EC50 (Human T-47D breast cells [2]) of the same compound?
Answer: Its EC50 is 2.9 nM.

Question: What about the Emax (Human T-47D breast cells [2]) of the same compound?
Answer: The Emax was 92%.

Question: What about the IC50 (progestin receptor (hPR)) of the same compound?
Answer: Its IC50 is 11 nM.

Question: With CCC(=O)O[C@]1(C(C)=O)CC[C@H]2[C@@H]3CCC4=CC(=O)CCC4=C3[C@@H](c3ccc(N4CCCC4)cc3)C[C@@]21C [17α-Propionyloxy-11β-[4-(N-pyrrolidino)phenyl-19-norpregna-4,9-diene-3-20-dione] as the compound, how does the “McPhail Index, McGinty Assay (Agonist)” value (rabbits; dose 0.3 micrograms) read?
Answer: Its value is 0 +/- 0.

Question: And the “McPhail Index, McGinty Assay (Agonist)” value (rabbits; dose 3 micrograms)?
Answer: The value was 0 +/- 0.

Question: What about the “McPhail Index, McGinty Assay (Agonist)” value (rabbits; dose 30 micrograms) of the same compound?
Answer: The value was 0.1 +/- 0.1.

Question: What about the Emax (Human T-47D breast cells [1]) of the same compound?
Answer: The Emax was -1%.

Question: And the EC50 (Human T-47D breast cells [2])?
Answer: The EC50 was 0.9 nM.

Question: What about the Emax (Human T-47D breast cells [2]) of the same compound?
Answer: Its Emax is 107%.

Question: And the IC50 (progestin receptor (hPR))?
Answer: The IC50 was 4.8 nM.

Question: Which “McPhail Index, McGinty Assay (Agonist)” value (rabbits; dose 0.3 micrograms) does the source give for C#C[C@]1(C(C)=O)CC[C@H]2[C@@H]3CCC4=CC(=O)CCC4=C3[C@@H](c3ccc(N(C)C)cc3)C[C@@]21C [I 4-Me2 N H O H --CCH H, 11β-(4-(N,N-Dimethylamino)phenyl)-17α-ethynyl-19-norpregna-4,9-diene-3,20-dione] here?
Answer: The value was 0.1 +/- 0.1.

Question: And the “McPhail Index, McGinty Assay (Agonist)” value (rabbits; dose 3 micrograms)?
Answer: The value was 0.2 +/- 0.2.

Question: What about the “McPhail Index, McGinty Assay (Agonist)” value (rabbits; dose 30 micrograms) of the same compound?
Answer: Its value is 0.2 +/- 0.2.

Question: What about the Emax (Human T-47D breast cells [1]) of the same compound?
Answer: The Emax was 12%.

Question: What about the EC50 (Human T-47D breast cells [2]) of the same compound?
Answer: The EC50 was 0.4 nM.

Question: What about the Emax (Human T-47D breast cells [2]) of the same compound?
Answer: The Emax was 101%.

Question: And the IC50 (progestin receptor (hPR))?
Answer: Its IC50 is 2.5 nM.

Question: For CCC(=O)O[C@]1(C(C)=O)CC[C@H]2[C@@H]3CCC4=CC(=O)CCC4=C3[C@@H](c3ccc(N(C)C)cc3)C[C@@]21C [I 4-Me2 N H O H --O--CO--C2 H5 H, 11β-[4-(N,N-dimethylamino)phenyl]-17α-propionyloxy-19-norpregna-4,9-diene-3,10-dione], which “McPhail Index, McGinty Assay (Agonist)” value (rabbits; dose 0.3 micrograms) is on record?
Answer: Its value is 0 +/- 0.

Question: What about the “McPhail Index, McGinty Assay (Agonist)” value (rabbits; dose 3 micrograms) of the same compound?
Answer: Its value is 0 +/- 0.

Question: What about the “McPhail Index, McGinty Assay (Agonist)” value (rabbits; dose 30 micrograms) of the same compound?
Answer: Its value is 0 +/- 0.

Question: And the Emax (Human T-47D breast cells [1])?
Answer: Its Emax is 4%.

Question: What about the EC50 (Human T-47D breast cells [2]) of the same compound?
Answer: Its EC50 is 0.4 nM.

Question: And the Emax (Human T-47D breast cells [2])?
Answer: The Emax was 110%.

Question: What about the IC50 (progestin receptor (hPR)) of the same compound?
Answer: Its IC50 is 1.3 nM.

Question: With CC(=O)[C@@]1(OC(=O)Cc2ccccc2)CC[C@H]2[C@@H]3CCC4=CC(=O)CCC4=C3[C@@H](c3ccc(N(C)C)cc3)C[C@@]21C [I 4-Me2 N H O H O--CO--CH2 C6 H5 H, 11β-[4-(N,N-Dimethylamino)phenyl]-17α-phenylacetoxy-19-norpregna-4,9-diene-3,20-dione] as the compound, how does the Emax (Human T-47D breast cells [1]) read?
Answer: Its Emax is 16%.

Question: And the EC50 (Human T-47D breast cells [2])?
Answer: The EC50 was 1.9 nM.

Question: What about the Emax (Human T-47D breast cells [2]) of the same compound?
Answer: Its Emax is 99%.

Question: And the IC50 (progestin receptor (hPR))?
Answer: The IC50 was 7.9 nM.
